Laboratory results taken from patent publication US6852482B1, “Methods and compositions for inhibiting β-secretase” (Elan Pharmaceuticals, Inc., priority 1995, dated 2005).
Where two headings read alike, the source gives them in different places.

Experiments:
β-secretase [1] = biological target: T1, β-secretase (Homo sapiens, UniProt P56817); assay: β-secretase inhibitor assay: purified β-secretase, MBP-C125 SW substrate, ELISA
[2] = biological target: T2, β-secretase cleavage of APP in membranes from 293 cells transfected with the Swedish variant of APP (Homo sapiens, UniProt P56817); assay: cell membrane (in situ) β-secretase cleavage of APP, 293SW cell membranes, 192SW immunoblot; assay type: biochemical
T2 construct: membranes from 293 cells transfected with the Swedish variant of APP (293SWE cells); endogenous in cells; host or cells: 293SW cells (human 293 cells stably transfected with Swedish APP); saponin-extracted P2 membrane pellet
Description: Generation of β-secretase cleaved APP fragments from the endogenous full length APP protein was observed using the 192SW antibody (described above) in membranes from 293 cells transfected with the Swedish variant of APP (293SWE cells). APP fragments may be measured by immunoprecipitation or by immunoblotting. The latter technique is preferred for reasons of convenience.
A semiquantitative assay for the detecting in situ β-secretase cleavage of APP in membranes was developed used to directly identify β-secretase inhibitors. The membrane assay is useful as a primary screen or as a secondary assay to confirm inhibiting activity of potential inhibitors identified in the assays described above.
Cell membrane assays were run as follows. […]
For β-secretase inhibition assays, 10 μl of the test compound of interest at 5 times its desired final concentration, in 500 mM sodium acetate, pH 5.5, and 20% DMSO, was added to 40 μl of the extracted P2 suspension. […] Membranes were blocked in NCS-TBS (10% newborn calf serum, 150 mM sodium chloride, 50 mM Tris, pH 7.5), and analyzed using 192SW, 0.5 μg/ml in NCS-TBS, as primary antibody, horseradish peroxidase-linked anti-rabbit IgG (Amersham) diluted 1:3000 in NCS-TBS as secondary antibody, and ECL reagent (Amersham) as chemilumenescent developer. The 192SW-reactive bands identified by autoradiography were quantitated by densitometry.

β-secretase [3] = biological target: T1, β-secretase; assay: binding of substantially purified β-secretase activity to immobilized lectins; design: endogenous in cells; host or cells: human 293 cells or human brain; solubilized membrane extract purified by WGA, SP, Q, Con A and Superdex 200 chromatography; conditions: for β-Secretase Binding: immobilized lectins
Procedure: Glycosylation of β-secretase has been investigated using various immobilized lectins, and ability of substantially purified β-secretase activity to bind to them was determined. […] A “−” sign signifies less than 20% binding, “+” between 24-40% binding, “++” between 50-75% binding, and “+++”>75% binding.

[4] = concentration of inhibitor giving 50% inhibition of control activity

T1 sequence (P56817 46-501): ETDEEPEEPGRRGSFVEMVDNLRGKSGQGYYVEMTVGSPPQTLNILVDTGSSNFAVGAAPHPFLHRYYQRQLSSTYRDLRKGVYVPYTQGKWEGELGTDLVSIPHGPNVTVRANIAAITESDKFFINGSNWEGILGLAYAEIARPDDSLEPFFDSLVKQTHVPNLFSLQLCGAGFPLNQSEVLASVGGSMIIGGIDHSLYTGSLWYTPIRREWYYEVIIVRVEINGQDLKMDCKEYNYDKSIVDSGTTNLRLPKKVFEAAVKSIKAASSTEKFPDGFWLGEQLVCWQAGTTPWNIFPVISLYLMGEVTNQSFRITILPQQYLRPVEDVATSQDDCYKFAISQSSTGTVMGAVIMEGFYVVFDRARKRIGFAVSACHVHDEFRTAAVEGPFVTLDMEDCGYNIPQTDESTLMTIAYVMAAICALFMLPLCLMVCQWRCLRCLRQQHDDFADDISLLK

| Molecule | β-Secretase Binding (β-secretase [3]) | IC50 (β-secretase [1]; [4]) [mM] | other results |
| --- | --- | --- | --- |
| c1cnc2c(c1)ccc1cccnc12 [o-phenanthroline] | – | 7 | inhibition of β-secretase activity (β-secretase [1]; summary of Table 3): inhibits poorly |
| Nc1c(/N=N/c2ccc(-c3ccc(/N=N/c4cc(S(=O)(=O)O)c5ccccc5c4N)cc3)cc2)cc(S(=O)(=O)O)c2ccccc12 [Congo Red] | – | – | activity in the in situ assay [2]: much more potent than an inactive control compound; activity in the ELISA assay (β-secretase [1]; ELISA assay): much more potent than an inactive control compound |
| [Cu+2] [Cu] | – | 2 | – |
| CCCCC(NC(=O)C=[N+]=[N-])C(=O)OC (stereo not shown) [diazoacetylnorleucyl-methyl ester] | – | – | IC50 (β-secretase [1]): > 5 mM |
| m-phenanthroline | – | 7 | – |
| [Zn+2] [Zn] | – | 3 | – |

Further lines, with some results ahead:

| β-Secretase Binding (β-secretase [3]) | Molecule | IC50 (β-secretase [1]; [4]) [mM] | other results |
| --- | --- | --- | --- |
| + + + | wheat germ (WGA): immobilized lectin | – | binding of β-secretase activity (β-secretase [3]): quantitatively |
| + (between 24-40% binding) | wheat germ - succinylated (SWGA): immobilized lectin | – | – |
| + (between 24-40% binding) | peanut (PNA): immobilized lectin (protein, UniProt P02872 24-273, looked up, immobilized, immobilized lectin) Galactose-binding lectin: AETVSFNFNSFSEGNPAINFQGDVTVLSNGNIQLTNLNKVNSVGRVLYAMPVRIWSSATGNVASFLTSFSFEMKDIKDYDPADGIIFFIAPEDTQIPAGSIGGGTLGVSDTKGAGHFVGVEFDTYSNSEYNDPPTDHVGIDVNSVDSVKTVPWNSVSGAVVKVTVIYDSSTKTLSVAVTNDNGDITTIAQVVDLKAKLPERVKFGFSASGSLGGRQIHLIRSWSFTSTLITTTRRSIDNNEKKIMNMASA | – | – |
| + (between 24-40% binding) | lentil (LCA): immobilized lectin (protein) chain 1: TETTSFSITKFSPDQKNLIFQGDGYTTKGKLTLTKAVKSTVGRALYSTPIHIWDRDTGNVANFVTSFTFVIDAPSSYNVADEFTFFIAPVDTKPQTGGGYLGVFNSKEYDKTSQTVAVEFDTFYNAAWDPSNKERHIGIDVNSIKSVNTKSWNLQNGERANVVIAFNAATNVLTVTLTYP chain 2: VTSYTLNEVVPLKDVVPEWVRIGFSATTGAEFAAHEVHSWSFHSELGGTSSS | – | – |
